# Counter-ions that a name gives are not always drawn. Like-named read-outs stand apart in the source and are kept apart here.
# Key:
# influenza A/WS/33 (H1N1) = assay: microbe, parasite or virus in culture; type: cell-based, influenza A virus
# [1] = tested on: influenza A/PR/8/34 (H1N1); assay: microbe, parasite or virus in culture; type: cell-based, influenza A virus
# [2] = tested on: influenza A/HK/8/68 (H3N2); assay: microbe, parasite or virus in culture; type: cell-based, influenza A virus
# Vero cells = settings: Table 3, MDT compounds, No Tox. = no cytotoxicity measured
# influenza B/GL/1739/54 = assay: Anti-viral EC50 experiment, survival of virus-infected Vero cells; type: cell-based, influenza B virus
# Description: The following MDT compounds were tested: MDT-1, MDT-3, MDT-10, MDT-11, MDT-12, MDT-13, MDT-14, MDT-15, MDT-16, MDT-22, MDT-23, MDT-24, MDT-26, MDT-27, MDT-28, MDT-29, MDT-30, MDT-31, MDT-32, MDT-33, MDT-34, MDT-40, MDT-41, MDT-42, MDT-43, MDT-44, MDT-45, MDT-46, MDT-47, MDT-48, MDT-49, MDT-50, MDT-51, MDT-53, MDT-56, MDT-57, MDT-58, MDT-59, MDT-60, MDT-61, MDT-62, MDT-63, MDT-65, MDT-67, MDT-68 and MDT-69. […] Amantadine and rimantadine are both adamantane derivatives.
# Compound diluents were dimethyl sulfoxide (DMSO), Molecusol ((2-hydroxypropyl)-β-cyclodextrin; Sigma H107), propylene-glycol (PG) and deionized water. Diluents were used singly or in combination as necessary to dissolve the compounds.
# The medium used for the cell lines was 1× Minimal Essential Medium (MEM) (Invitrogen) supplemented with 1% L-glutamine, 1% penicillin-streptomycin, 0.125% bovine serum albumin (BSA), and 1 μg/ml of TPCK-trypsin.
# The viruses tested were influenza A/PR/8/34 (H1N1), influenza A/WS/33 (H1N1), influenza A/HK/8/68 (H3N2) and influenza B/GL/1739/54 (no H, N subtyping). Cells used were the Vero line of African green monkey, normal kidney cells. All viruses and cells were obtained from The American Type Culture Collection (Rockville, Md.). Cells were grown in an atmosphere of 4-6% CO2 at 34-38° C. in MEM with 5% fetal bovine serum (FBS), 2 mM glutamine, and 1% penicillin-streptomycin solution to maintain exponential growth.
# The Vero cells were plated on Day 0. On Day 1, cells were infected with virus and incubated with various concentrations of test compounds. […] On Day 4 the cells were fixed and stained. […] Cell survival due to exposure to test compound was indicative of anti-viral activity.
# [3] = tested on: 3 strains of influenza A virus and one strain of influenza B virus; type: cell-based; settings: Vero cells; screening at 50, 10, 5 and 1 μM; all four influenza strains
# [4] = Table 3, Vero cells, H1N1, n at least 2, No effic. = no efficacy measured, read-out: EC50 Virus A/WS/33
# [5] = Table 3, Vero cells, H1N1, n at least 2, No effic. = no efficacy measured, read-out: EC50 Virus A/PR/8/34
# [6] = Table 3, Vero cells, H3N2, n at least 2, No effic. = no efficacy measured
# [7] = Table 3, Vero cells, n at least 2, No effic. = no efficacy measured
# [8] = Table 3, Vero cells, H1N1, n at least 2, No effic. = no efficacy measured
# [9] = Table 3, Vero cells, H3N2, n at least 2, No effic. = no efficacy measured, read-out: EC50 Virus A/HK/8/68
# [10] = Influenza A virus, Table 3, Vero cells, H1N1, n at least 2, No effic. = no efficacy measured
molecule,measurement,setting,value
2-aminotriamantane [MDT-50],EC50,influenza A/WS/33 (H1N1); [4],370 nM
same,EC50,[1]; [5],20 nM
same,EC50 Virus A/HK/8/68,[2]; [6],No Effic.
same,Cytotoxicity,Vero cells,10 or above μM
same,EC50,influenza B/GL/1739/54; [7],< 1000 nM
3-aminotriamantane [MDT-48],anti-viral activity under the conditions tested,[3],did not exhibit anti-viral activity
9-aminotriamantane [MDT-49],anti-viral activity under the conditions tested,[3],did not exhibit anti-viral activity
"NC12CC3CC(CC(C3)C1)C2 [Amantadine, 1-aminoadamantane hydrochloride, reference compound]",EC50,"influenza A/WS/33 (H1N1); Influenza A virus, H1N1, Vero, Table 4, controls, cutoff control values compiled through many experiments",≥ 10000 nM
same,EC50,"[1]; Influenza A virus, Vero, Table 4, controls, cutoff control values compiled through many experiments",≥ 50000 nM
same,EC50,"[2]; Influenza A virus, H3N2, Vero, Table 4, controls, cutoff control values compiled through many experiments",≤ 1000 nM
same,EC50,"influenza B/GL/1739/54; Influenza B virus, Vero, Table 4, controls, cutoff control values, determined over only 2 experiments",≥ 20000 nM
"NC12CC3CC4C5CC(CC41)CC2C5C3 [MDT-1, 1-aminodiamantane]",anti-viral activity under the conditions tested,[3],did not exhibit anti-viral activity
"NC12CC3C4CC5CC3C(C1)C(C5)C4C2 [MDT-3, 4-aminodiamantane]",EC50 Virus A/WS/33,influenza A/WS/33 (H1N1); [8],No Effic.
same,EC50 Virus A/PR/8/34,[1]; [8],No Effic.
same,EC50,[2]; [9],< 125 nM
same,Cytotoxicity,Vero cells,10 or above μM
same,EC50 Virus B/GL/1739/54,influenza B/GL/1739/54; [7],No Effic.
"OC12CC3CC4C5CC(CC41)CC2C5C3 [MDT-10, 1-hydroxydiamantane]",anti-viral activity under the conditions tested,[3],did not exhibit anti-viral activity
"OC12CC3C4CC5CC3C(C1)C(C5)C4C2 [MDT-11, 4-hydroxydiamantane]",anti-viral activity under the conditions tested,[3],did not exhibit anti-viral activity
"OC12CC3CC4C1CC1CC2C(C3)C4(O)C1 [MDT-12, 1,6-dihydroxydiamantane]",anti-viral activity under the conditions tested,[3],did not exhibit anti-viral activity
"OC12CC3CC4C1CC1CC4C(O)(C3)C2C1 [MDT-13, 1,7-dihydroxydiamantane]",anti-viral activity under the conditions tested,[3],did not exhibit anti-viral activity
"OC12CC3C4CC5(O)CC3C(C1)C(C5)C4C2 [MDT-14, 4,9-dihydroxydiamantane]",anti-viral activity under the conditions tested,[3],did not exhibit anti-viral activity
"OC12CC3C4CC5C6CC7(O)CC5C(C4C1)C(C2)(C7)C36 [MDT-15, 9,15-dihydroxytriamantane]",anti-viral activity under the conditions tested,[3],did not exhibit anti-viral activity
"CC12CC3(N)CC4C5CC(CC41)CC2C5C3 [MDT-22, 2-methyl-4-aminodiamantane]",anti-viral activity under the conditions tested,[3],did not exhibit anti-viral activity
"CC12CC3CC4C1CC1(N)CC2C(C3)C4(C)C1 [MDT-23, 1,6-dimethyl-4-aminodiamantane]",anti-viral activity under the conditions tested,[3],did not exhibit anti-viral activity
"CC12CC3CC4C5CC(N)(CC41)CC2C5C3 [MDT-24, 1-methyl-4-aminodiamantane]",EC50 Virus A/WS/33,influenza A/WS/33 (H1N1); [8],No Effic.
same,EC50 Virus A/PR/8/34,[1]; [8],No Effic.
same,EC50,[2]; [9],70 nM
same,Cytotoxicity,Vero cells,No Tox.
same,EC50 Virus B/GL/1739/54,influenza B/GL/1739/54; [7],No Effic.
"O=NC12CC3CC4C5CC(CC41)CC2C5C3 [MDT-26, 1-nitrosodiamantane]",EC50,influenza A/WS/33 (H1N1); [4],800 nM
same,EC50,[1]; [5],140 nM
same,EC50 Virus A/HK/8/68,[2]; [6],No Effic.
same,Cytotoxicity,Vero cells,No Tox.
same,EC50 Virus B/GL/1739/54,influenza B/GL/1739/54; [7],No Effic.
"O=NC12CC3C4CC5CC3C(C1)C(C5)C4C2 [MDT-27, 4-nitrosodiamantane]",EC50,influenza A/WS/33 (H1N1); [4],360 nM
same,EC50,[1]; [5],20 nM
same,EC50 Virus A/HK/8/68,[2]; [6],No Effic.
same,Cytotoxicity,Vero cells,No Tox.
same,EC50 Virus B/GL/1739/54,influenza B/GL/1739/54; [7],No Effic.
"CC12CC3(N)CC4C5CC(N)(CC41)CC2C5C3 [MDT-28, 1-methyl-4,9-diaminodiamantane]",anti-viral activity under the conditions tested,[3],did not exhibit anti-viral activity
"CC12CC3CC4C1CC1(N)CC2C(C3)C4(N)C1 [MDT-29, 1-methyl-4,6-diaminodiamantane]",anti-viral activity under the conditions tested,[3],did not exhibit anti-viral activity
"CC12CC3CC4C5CC(CC41)CC2(N)C5C3 (stereo not shown) [MDT-30, 1-amino-12-methyldiamantane]",anti-viral activity under the conditions tested,[3],did not exhibit anti-viral activity
"CC12CC3CC4C1CC1(N)CC2C(C3)C4(C)C1 [MDT-33, 1,6-dimethyl-4-aminodiamantane]",anti-viral activity under the conditions tested,[3],did not exhibit anti-viral activity
"OC12C3CC4CC5C3CC3C6CC(CC31)CC2(C4)C56 [MDT-40, 2-hydroxytriamantane]",EC50,influenza A/WS/33 (H1N1); [4],24900 nM
same,EC50,[1]; [5],1900 nM
same,EC50 Virus A/HK/8/68,[2]; [6],No Effic.
same,Cytotoxicity,Vero cells,No Tox.
same,EC50 Virus B/GL/1739/54,influenza B/GL/1739/54; [7],No Effic.
"OC12CC3CC4C1CC1C5CC6CC1C2C(C6)(C3)C54 (stereo not shown) [MDT-41, 3-hydroxytriamantane]",EC50,influenza A/WS/33 (H1N1); [10],5500 nM
same,EC50,[1]; [10],610 nM
same,EC50 Virus A/HK/8/68,[2]; [6],No Effic.
same,Cytotoxicity,Vero cells,No Tox.
same,EC50 Virus B/GL/1739/54,influenza B/GL/1739/54; [7],No Effic.
"OC12CC3C4CC5C6CC7CC5C(C4C1)C(C7)(C2)C63 [MDT-42, 9-hydroxytriamantane]",EC50,influenza A/WS/33 (H1N1); [10],2500 nM
same,EC50,[1]; [10],80 nM
same,EC50 Virus A/HK/8/68,[2]; [6],No Effic.
same,Cytotoxicity,Vero cells,No Tox.
same,EC50 Virus B/GL/1739/54,influenza B/GL/1739/54; [7],No Effic.
"CC12CC3CC4C1CC1CC2C(N)(C3)C4(C)C1 (stereo not shown) [MDT-43, 1,6-dimethyl-2-aminodiamantane]",EC50,influenza A/WS/33 (H1N1); [4],820 nM
same,EC50,[1]; [5],60 nM
same,EC50 Virus A/HK/8/68,[2]; [6],No Effic.
same,Cytotoxicity,Vero cells,10 or above μM
same,EC50 Virus B/GL/1739/54,influenza B/GL/1739/54; [7],No Effic.
"CC12CC3CC4C1CC1CC2C(O)(C3)C4(C)C1 (stereo not shown) [MDT-44, 1,6-dimethyl-2-hydroxydiamantane]",EC50,influenza A/WS/33 (H1N1); [4],610 nM
same,EC50,[1]; [5],50 nM
same,EC50 Virus A/HK/8/68,[2]; [6],No Effic.
same,Cytotoxicity,Vero cells,No Tox.
same,EC50 Virus B/GL/1739/54,influenza B/GL/1739/54; [7],No Effic.
"CC12CC3CC4C1CC1(O)CC2C(C3)C4(C)C1 [MDT-45, 1,6-dimethyl-4-hydroxydiamantane]",EC50,influenza A/WS/33 (H1N1); [4],300 nM
same,EC50,[1]; [5],20 nM
same,EC50 Virus A/HK/8/68,[2]; [6],No Effic.
same,Cytotoxicity,Vero cells,No Tox.
same,EC50 Virus B/GL/1739/54,influenza B/GL/1739/54; [7],No Effic.
"CC12CC3CC4C1CC1(C(=O)O)CC2C(C3)C4(C)C1 [MDT-46, 1,6-dimethyl-4-diamantanecarboxylic acid]",EC50,influenza A/WS/33 (H1N1); [4],< 125 nM
same,EC50,[1]; [5],< 125 nM
same,EC50 Virus A/HK/8/68,[2]; [6],No Effic.
same,Cytotoxicity,Vero cells,No Tox.
same,EC50 Virus B/GL/1739/54,influenza B/GL/1739/54; [7],No Effic.
"CC12CC3C4CC5(C)CC3C(C1)C(N)(C5)C4C2 [MDT-51, 4,9-dimethyl-1-aminodiamantane]",anti-viral activity under the conditions tested,[3],did not exhibit anti-viral activity
"CC12CC3C4CC5(C)CC(C(C1)C3(N)C5)C4(N)C2 [MDT-53, 4,9-dimethyl-1,6-diaminodiamantane]",anti-viral activity under the conditions tested,[3],did not exhibit anti-viral activity
"NCC12CC3CC4C5CC(CC41)CC2C5C3 [MDT-56, 1-diamantanemethylamine]",anti-viral activity under the conditions tested,[3],did not exhibit anti-viral activity
"O=C1C2CC3C4CC5CC3C1C(C5)C4C2 [MDT-59, 3-diamantanone]",anti-viral activity under the conditions tested,[3],did not exhibit anti-viral activity
"CC12CC3C4CC5CC3C(C1)C(C5)C4C2 [MDT-60, 4-methyldiamantane]",anti-viral activity under the conditions tested,[3],did not exhibit anti-viral activity
"CC12CC3C4CC5(C)CC3C(C1)C(CN)(C5)C4C2 [MDT-63, 4,9-dimethyl-1-diamantanemethyleneamine]",anti-viral activity under the conditions tested,[3],did not exhibit anti-viral activity
"CC12CC3CC4C1CC1(CN)CC2C(C3)C4(C)C1 [MDT-65, 1,6-dimethyl-4-diamantanemethyleneamine]",anti-viral activity under the conditions tested,[3],did not exhibit anti-viral activity
"CC(N)C12CC3(C)CC4C5CC(C)(CC41)CC2C5C3 (stereo not shown) [MDT-67, 4,9-dimethyl-1-diamantane-1′-methyl-methyleneamine]",anti-viral activity under the conditions tested,[3],did not exhibit anti-viral activity
"CC(N)C12CC3C4CC5CC(C(C1)C3(C)C5)C4(C)C2 (stereo not shown) [MDT-68, 1,6-dimethyl-4-diamantane-4′-methyl-methyleneamine]",anti-viral activity under the conditions tested,[3],did not exhibit anti-viral activity

# Reference: patent US20080300317A1 (Chevron U.S.A. Inc., priority 2007, published 2008)
